In publication PMC8227885 (Viruses, 2021):

Molecular target: SARS-CoV-2 RBD:ACE2 (UniProt P0DTC2+Q9BYF1)
Test: biochemical
Set-up: species or system SARS-CoV-2 (RBD); human (ACE2)

SARS-CoV-2 RBD:ACE2, sequence (Q9BYF1 18-615, one chain of several): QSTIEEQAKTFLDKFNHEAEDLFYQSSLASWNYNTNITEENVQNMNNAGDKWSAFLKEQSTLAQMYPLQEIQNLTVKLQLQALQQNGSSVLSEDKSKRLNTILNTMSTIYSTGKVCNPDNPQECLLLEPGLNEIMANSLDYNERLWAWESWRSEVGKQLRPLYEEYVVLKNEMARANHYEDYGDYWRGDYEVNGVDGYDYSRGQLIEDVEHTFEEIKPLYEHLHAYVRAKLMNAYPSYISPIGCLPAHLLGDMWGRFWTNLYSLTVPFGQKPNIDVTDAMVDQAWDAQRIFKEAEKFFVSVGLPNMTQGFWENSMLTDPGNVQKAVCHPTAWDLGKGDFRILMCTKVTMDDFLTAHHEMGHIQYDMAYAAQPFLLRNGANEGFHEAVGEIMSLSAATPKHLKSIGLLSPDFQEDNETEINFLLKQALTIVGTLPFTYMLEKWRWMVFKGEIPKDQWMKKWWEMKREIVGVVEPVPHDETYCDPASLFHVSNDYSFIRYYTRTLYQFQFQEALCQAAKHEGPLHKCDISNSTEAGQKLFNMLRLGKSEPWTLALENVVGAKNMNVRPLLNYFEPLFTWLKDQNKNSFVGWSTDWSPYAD

`O=c1c(O)cc([C@H]2Oc3cc(O)cc(O)c3C[C@H]2O)cc2c([C@H]3Oc4cc(O)cc(O)c4C[C@H]3O)cc(O)c(O)c12` [Theaflavin] was tested, and the IC50 was 41.7 µM and the “effect on SRAE2-BS activity (suppression)” value was “significantly suppressed SRAE2-BS activity”.
